Values quoted from earlier work, collected in publication PMC5384962, “First-in-human studies of seletalisib, an orally bioavailable small-molecule PI3Kδ inhibitor for the treatment of immune and inflammatory diseases” (European Journal of Clinical Pharmacology, 2017).

Parameters: method as in ref 29 = [29]; 29. Infinity Pharmaceuticals (2015) Press release: Infinity reports topline results from Phase 2 study of duvelisib in rheumatoid arthritis.
Settings: patients with moderate-to-severe RA; cited from earlier work

C[C@H](Nc1ncnc2nc[nH]c12)c1cc2cccc(Cl)c2c(=O)n1-c1ccccc1 [duvelisib]
phase II primary endpoint (ACR20 at week 12): failed to meet its phase II study primary endpoint
